Measurements reported in patent publication US10414760B2, “Cytochrome P450 inhibitors and uses thereof” (ANGION BIOMEDICA CORP., priority 2016, dated 2019).
One block for each molecule: values may come before it.

Experiments:
[1] = molecular target: T1, CYP26 (Mus musculus, UniProt O55127); test: CYP26 inhibition: substrate depletion assay for ATRA metabolism in mouse microsomes; type: biochemical
T1 construct: tissue Xenotech; host or cells: liver microsomes of ATRA-treated mice
T1 sequence (O55127 1-497): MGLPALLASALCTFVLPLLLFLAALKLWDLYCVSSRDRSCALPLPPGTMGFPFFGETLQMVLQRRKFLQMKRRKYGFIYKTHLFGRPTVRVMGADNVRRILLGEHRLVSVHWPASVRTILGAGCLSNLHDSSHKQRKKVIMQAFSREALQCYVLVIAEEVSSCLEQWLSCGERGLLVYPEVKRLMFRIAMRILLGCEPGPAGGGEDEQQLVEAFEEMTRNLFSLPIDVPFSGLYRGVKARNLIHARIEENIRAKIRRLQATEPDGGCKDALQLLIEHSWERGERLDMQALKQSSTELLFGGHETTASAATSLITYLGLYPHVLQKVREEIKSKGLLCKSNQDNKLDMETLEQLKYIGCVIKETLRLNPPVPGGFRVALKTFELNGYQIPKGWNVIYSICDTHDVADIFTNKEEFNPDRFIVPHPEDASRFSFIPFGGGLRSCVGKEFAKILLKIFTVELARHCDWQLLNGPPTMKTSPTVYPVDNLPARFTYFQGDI
Experimental: (§1) Serum Testosterone and PSA and Tumor Testosterone Analysis. Tumor tissue obtained from mice will be homogenized in phosphate buffer (pH 7.4, 0.1 M) and homogenates centrifuged at 2000 g for 20 min. Testosterone concentrations in the serum and in the clear tissue homogenate supernatant will be determined with the ELISA kit from R&D Systems (Catalog # KGR010). Serum PSA concentrations will be measured using a PSA ELISA kit with a serum dilution according to the manufacturers instructions. • c. Breast cancer. To test the efficacy of compounds embodied herein against breast cancer, nude mice carrying human breast cancer lines that are estrogen receptor and Aromatase positive will be used. Cells will be grown in vitro and 2 million will be inoculated in Matrigel (50:50 volume ratio of cells to Matrigel). Cells will be distributed by s.c. injection at the right and left flanks or at the orthotopic sitest in 6 to 8 week old athymic nude mice (BALB/c strain) or severe combined immunodeficient mice under anesthesia. Animals will be treated with compound for 4 weeks, at which point animals will be sacrificed and collect blood samples and tumor tissue for the determination of serum and tumor estrogen levels. Tumors will be excised and a portion will be fixed in formalin for subsequent histochemical and immuno-histochemical analysis. The remainder will be snap frozen in liquid nitrogen and stored at −80° C. • 12. CYP26 inhibition activity. A substrate depletion assay for ATRA metabolism in mouse microsomes is used. […] The assay is run in a 100 μL reaction volume and stopped with an equal volume of methanol. […] CYP17 inhibition assay: In vitro assays for CYP17 17α-hydroxylase and C17,20-lyase activity, assays using rat and dog testis microsomes and ELISA kits from commercial vendors for the detection of formed products are employed. Incubation of rat testis microsomes with the substrate progesterone (P4) results, through the CYP17 17α-hydroxylase and C17,20-lyase activities, in a marked production of androstenedione (AD) in a time and enzyme-concentration dependent manner. […] In another control, microsomes isolated from rat livers, which are known to express very little or no CYP17, are shown to be devoid of this activity. Assays are also used that determine the activity of 17α-hydroxylase activity using P4 as a substrate and detecting HOP4 as a product (using dog testis microsomes) and the activity of C17,20-lyase by using HOP4 as a substrate and AD as a product (rat testis microsomes). • 14. CYP19 inhibition assay: For in vitro assays of CYP19 aromatase activity, commercially available CYP19 enzyme preparations (e.g. BD Gentest Supersomes Catalog #456260) and assay kits (e.g. BD Gentest Catalog #459520) are employed according to the manufacturers instructions.
CYP26 inhibition. […] The assay was run in a 100 μL reaction volume and stopped with an equal volume of methanol. […] Other compounds of formula (I) are similarly potent, for example with an IC50 of 1.6 nM.

[2] = molecular target: T2, CYP17 (Rattus norvegicus, UniProt P11715); test: CYP17 inhibition: 17α hydroxylase and C17,20 lyase activity in testis microsomes, ELISA detection; type: biochemical; conditions: which microsome assay (rat or dog testis) not specified
T2 construct: using rat and dog testis microsomes and ELISA kits from commercial vendors; from tissue; host or cells: rat testis microsomes
T2 sequence (P11715 1-507): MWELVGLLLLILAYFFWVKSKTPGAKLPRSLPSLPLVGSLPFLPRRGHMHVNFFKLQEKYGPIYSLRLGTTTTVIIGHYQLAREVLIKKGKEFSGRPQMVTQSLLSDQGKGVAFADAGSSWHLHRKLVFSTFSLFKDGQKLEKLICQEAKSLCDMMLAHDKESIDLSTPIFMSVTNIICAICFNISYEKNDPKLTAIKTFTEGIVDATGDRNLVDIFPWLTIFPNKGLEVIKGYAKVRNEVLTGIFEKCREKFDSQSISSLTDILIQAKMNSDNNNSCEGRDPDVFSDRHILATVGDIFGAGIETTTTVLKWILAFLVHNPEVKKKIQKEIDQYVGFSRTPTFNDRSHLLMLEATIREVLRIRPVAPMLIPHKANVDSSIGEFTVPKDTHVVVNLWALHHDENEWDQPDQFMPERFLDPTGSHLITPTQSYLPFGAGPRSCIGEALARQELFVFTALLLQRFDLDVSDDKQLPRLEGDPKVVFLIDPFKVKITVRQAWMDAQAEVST
Experimental: Serum Testosterone and PSA and Tumor Testosterone Analysis. Tumor tissue obtained from mice will be homogenized in phosphate buffer (pH 7.4, 0.1 M) and homogenates centrifuged at 2000 g for 20 min. Testosterone concentrations in the serum and in the clear tissue homogenate supernatant will be determined with the ELISA kit from R&D Systems (Catalog # KGR010). Serum PSA concentrations will be measured using a PSA ELISA kit with a serum dilution according to the manufacturers instructions. • c. Breast cancer. To test the efficacy of compounds embodied herein against breast cancer, nude mice carrying human breast cancer lines that are estrogen receptor and Aromatase positive will be used. Cells will be grown in vitro and 2 million will be inoculated in Matrigel (50:50 volume ratio of cells to Matrigel). Cells will be distributed by s.c. injection at the right and left flanks or at the orthotopic sitest in 6 to 8 week old athymic nude mice (BALB/c strain) or severe combined immunodeficient mice under anesthesia. Animals will be treated with compound for 4 weeks, at which point animals will be sacrificed and collect blood samples and tumor tissue for the determination of serum and tumor estrogen levels. Tumors will be excised and a portion will be fixed in formalin for subsequent histochemical and immuno-histochemical analysis. The remainder will be snap frozen in liquid nitrogen and stored at −80° C. • 12. CYP26 inhibition activity. […] The assay is run in a 100 μL reaction volume and stopped with an equal volume of methanol. […] CYP17 inhibition assay: In vitro assays for CYP17 17α-hydroxylase and C17,20-lyase activity, assays using rat and dog testis microsomes and ELISA kits from commercial vendors for the detection of formed products are employed. […] Assays are also used that determine the activity of 17α-hydroxylase activity using P4 as a substrate and detecting HOP4 as a product (using dog testis microsomes) and the activity of C17,20-lyase by using HOP4 as a substrate and AD as a product (rat testis microsomes). • 14.
CYP17 inhibition. In vitro assays for CYP17 17α hydroxylase and C17,20 lyase activity using rat and dog testis microsomes and ELISA kits from commercial vendors for the detection of formed products were employed. […] Assays were also used that determine the activity of 17α hydroxylase activity using P4 as a substrate and detecting HOP4 as a product (using dog testis microsomes) and the activity of C17,20 lyase by using HOP4 as a substrate and AD as a product (rat testis microsomes).

[3] = molecular target: T3, CYP19 (Homo sapiens, UniProt P11511); test: CYP19 inhibition: commercially available recombinant enzyme and assay kit; type: biochemical
T3 construct: purchased BD Gentest 456260
T3 sequence (P11511 1-503): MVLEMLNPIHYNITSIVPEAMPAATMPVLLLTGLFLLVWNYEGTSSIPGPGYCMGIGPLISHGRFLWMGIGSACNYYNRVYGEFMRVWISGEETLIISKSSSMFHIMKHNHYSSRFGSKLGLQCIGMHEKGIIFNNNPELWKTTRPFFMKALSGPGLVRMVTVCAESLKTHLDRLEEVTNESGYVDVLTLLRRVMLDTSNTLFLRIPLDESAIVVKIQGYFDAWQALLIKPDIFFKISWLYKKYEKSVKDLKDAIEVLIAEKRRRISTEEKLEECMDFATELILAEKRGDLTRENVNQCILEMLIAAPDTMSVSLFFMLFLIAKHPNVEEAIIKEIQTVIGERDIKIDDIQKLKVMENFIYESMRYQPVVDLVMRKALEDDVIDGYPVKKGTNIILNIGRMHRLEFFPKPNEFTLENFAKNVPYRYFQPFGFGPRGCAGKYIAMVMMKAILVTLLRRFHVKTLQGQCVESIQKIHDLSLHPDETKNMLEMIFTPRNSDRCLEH
Experimental: as §1
Selectivity for other P450 enzymes. To assess the selectivity of compounds embodied herein, activity was evaluated first against CYP3A4 and CYP19 using commercially available recombinant enzymes and assay kits. To calculate a selectivity factor, the IC50 for a particular P450 enzyme was divided by the IC50 in the CYP17 combination assay.

[4] = molecular target: T4, CYP26 (Homo sapiens, UniProt O43174); conditions: human recombinant enzyme; read-out: Km reported for the human recombinant enzyme; cited from earlier work
T4 sequence (O43174 1-497): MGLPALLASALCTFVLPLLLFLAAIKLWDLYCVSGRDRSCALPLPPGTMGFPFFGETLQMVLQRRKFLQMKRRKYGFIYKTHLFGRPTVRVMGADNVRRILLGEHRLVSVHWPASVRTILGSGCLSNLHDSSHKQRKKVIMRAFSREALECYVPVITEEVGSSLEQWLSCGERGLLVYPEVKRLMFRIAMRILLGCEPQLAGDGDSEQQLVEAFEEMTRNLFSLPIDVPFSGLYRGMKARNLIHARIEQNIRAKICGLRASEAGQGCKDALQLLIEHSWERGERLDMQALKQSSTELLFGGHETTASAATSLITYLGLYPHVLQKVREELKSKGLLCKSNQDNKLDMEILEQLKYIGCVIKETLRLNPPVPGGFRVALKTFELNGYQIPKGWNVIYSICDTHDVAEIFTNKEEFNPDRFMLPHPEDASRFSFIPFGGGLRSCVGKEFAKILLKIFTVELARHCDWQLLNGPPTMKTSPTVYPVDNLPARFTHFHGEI

[5] = substrate: CC1=C(/C=C/C(C)=C/C=C/C(C)=C/C(=O)O)C(C)(C)CCC1; test: cells, lysate or membranes named; conditions: other: induced mouse microsomes; pH 7.4

IC50 [1]: < 1000 nM
IC50 [2]: < 5000 nM
IC50 [3]: < 1000 nM
Molecule: CCC(C(c1ccc2nc(Br)sc2c1)n1ccnc1)N(C)C (centres unmarked) [Example 8, 1-(2-Bromobenzo[d]thiazol-6-yl)-1-(1H-imidazol-1-yl)-N,N-dimethylbutan-2-amine]

IC50 [1]: < 1000 nM
IC50 [2]: < 5000 nM
IC50 [3]: < 1000 nM
Molecule: CCC(C(c1ccc2nc(N)sc2c1)n1ccnc1)N(C)C (centres unmarked) [Example 1, 6-(2-(Dimethylamino)-1-(1H-imidazol-1-yl)butyl)benzo[d]thiazol-2-amine]

Molecule: CC1=C(/C=C/C(C)=C/C=C/C(C)=C/C(=O)O)C(C)(C)CCC1 [ATRA, all-trans retinoic acid]
Km [4]: ~0.01 µM

B1: CYP26 (Mus musculus) (protein)
chain: T1 sequence (O55127 1-497)
Km [5]: 0.004 µM
